Experimental data taken from article PMC7256108 (Cellular and Molecular Life Sciences: CMLS, 2019).
Where a chain is given by its changes, count along the chain named. Like-named read-outs stand apart in the source and are kept apart here.

Columns and labels:
Assay type in all cases: cell-based
OR2M3 wt = target: T1, OR2M3 wt (Homo sapiens, UniProt Q8NG83); experiment: cAMP-luminescence GloSensor assay, recombinant OR2M3 wt; settings: no odorant
T1 construct: full-length gene-specific forward and reverse primers were added; 39aa rho-tag; expressed in transfected cells; host or cells: NxG 108CC15 or HEK-293 cells
T1 sequence (Q8NG83 1-312): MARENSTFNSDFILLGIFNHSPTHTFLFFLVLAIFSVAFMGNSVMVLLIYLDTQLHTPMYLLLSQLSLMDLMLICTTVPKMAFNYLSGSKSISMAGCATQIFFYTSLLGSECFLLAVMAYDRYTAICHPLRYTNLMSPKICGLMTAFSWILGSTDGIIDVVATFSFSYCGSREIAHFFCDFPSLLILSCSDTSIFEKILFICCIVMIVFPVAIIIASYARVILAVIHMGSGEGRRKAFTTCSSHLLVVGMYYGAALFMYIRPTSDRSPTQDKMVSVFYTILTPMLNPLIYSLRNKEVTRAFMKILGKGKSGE
Procedure: (§1) The assay was performed as reported above.
(§2) All data are presented as mean ± SD.

OR2T11 C119R = target: T2, OR2T11 C119R (Homo sapiens, UniProt Q8NH01, C119R); experiment: GloSensor assay, OR2T11 C119R
T2 construct: expressed in transfected cells; host or cells: NxG 108CC15 or HEK-293 cells
From the text: as §2
Concentration-response relation of 3-mercapto-2-methylpentan-1-ol on OR2M3 in the absence or presence of each 30 µmol/L CuCl2 (a), and 30 µmol/L CuCl2 and the copper chelator TEPA (b). Concentration-response relation of 2-methylpropane-2-thiol on OR2T11 C119R in the absence or presence of 30 µmol/L CuCl2 (c). Concentration-response relation of 3-mercapto-2-methylpentan-1-ol on OR2M3 in the absence or presence of each 30 µmol/L FeCl3 (d); NiCl2 (e); CoCl2 (f); ZnSO4 (g); AgAc (h); AgNO3 (i) and colloidal silver (j). Comparison of efficacies of 20 µmol/L 3-mercapto-2-methylpentan-1-ol on OR2M3 in the absence or presence of different metal ions at 30 µmol/L (k). Note that the same data set in the absence of supplemented Cu^2+ (grey) is given in sub-panels (a-b, d-j) for didactic reasons. Data were mock control-subtracted, normalized to the OR2M3 wt signal in response to 3-mercapto-2-methylpentan-1-ol (20 µmol/L), measured in the absence of Cu^2+ (a-b, d-k) or rather normalized to the OR2T11 C119R signal in response to 2-methylpropan-2-thiol (100 µmol/L), measured in the presence of Cu^2+ (c), and shown as mean ± SD (n = 3 – 6). RLU = relative luminescence unit. 3MMP = 3-mercapto-2-methylpentan-1-ol. Note that for didactical reasons the concentration-response relations in Fig. 1b and Fig. S5a are the identical data set. […]

[1] = target: sphingosine-1-phosphate receptor 4 (S1P4); experiment: cAMP-luminescence GloSensor assay, endogenously expressed S1P4; settings: footnote b: EC50 in nmol/L
Procedure: as §1, §2

OR2W1 wt = target: T3, OR2W1 wt (Homo sapiens, UniProt Q9Y3N9); experiment: cAMP-luminescence GloSensor assay, recombinant OR2W1 wt
T3 construct: 39aa rho-tag; expressed in transfected cells; host or cells: NxG 108CC15 or HEK-293 cells
T3 sequence (Q9Y3N9 1-320): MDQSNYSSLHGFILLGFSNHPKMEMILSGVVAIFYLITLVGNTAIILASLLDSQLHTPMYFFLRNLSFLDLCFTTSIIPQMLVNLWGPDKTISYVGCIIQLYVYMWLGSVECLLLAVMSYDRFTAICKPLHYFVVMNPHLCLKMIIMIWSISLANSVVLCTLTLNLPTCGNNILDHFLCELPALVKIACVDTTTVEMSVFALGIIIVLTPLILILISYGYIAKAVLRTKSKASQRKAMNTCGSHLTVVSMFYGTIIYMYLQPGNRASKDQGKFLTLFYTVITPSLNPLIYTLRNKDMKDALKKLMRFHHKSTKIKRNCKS
Procedure: as §1, §2

OR2W1 L202S = target: T4, OR2W1 L202S (Homo sapiens, UniProt Q9Y3N9, L202S); experiment: GloSensor assay, OR2W1 L202S
T4 construct: 39aa rho-tag; expressed in transfected cells; host or cells: NxG 108CC15 or HEK-293 cells
T4 sequence (Q9Y3N9 1-320 L202S): T3 sequence (Q9Y3N9 1-320) with L202S
Procedure: (§3) All receptor variants used were generated by PCR-based site-directed mutagenesis in two steps. Gene-specific primers (mutation primers) were used according to Table S2 and Table S3. The mutation primers, which carried the changed nucleotides, were designed overlapping.
as §1, §2

OR2W1 L202C = target: T5, OR2W1 L202C (Homo sapiens, UniProt Q9Y3N9, L202C); experiment: GloSensor assay, OR2W1 L202C
T5 construct: full-length gene-specific forward and reverse primers were added; 39aa rho-tag; expressed in transfected cells; host or cells: NxG 108CC15 or HEK-293 cells
T5 sequence (Q9Y3N9 1-320 L202C): T3 sequence (Q9Y3N9 1-320) with L202C
Procedure: as §3, §1, §2

OR2W1 S109A = target: T6, OR2W1 S109A (Homo sapiens, UniProt Q9Y3N9, S109A); experiment: GloSensor assay, OR2W1 S109A
T6 construct: 39aa rho-tag; expressed in transfected cells; host or cells: NxG 108CC15 or HEK-293 cells
T6 sequence (Q9Y3N9 1-320 S109A): T3 sequence (Q9Y3N9 1-320) with S109A
Procedure: as §3, §1, §2

OR2W1 Y252A = target: T7, OR2W1 Y252A (Homo sapiens, UniProt Q9Y3N9, Y252A); experiment: GloSensor assay, OR2W1 Y252A; settings: ligands 300 µmol/L
T7 construct: 39aa rho-tag; expressed in transfected cells; host or cells: NxG 108CC15 or HEK-293 cells
T7 sequence (Q9Y3N9 1-320 Y252A): T3 sequence (Q9Y3N9 1-320) with Y252A
Procedure: as §3, §1, §2

OR2W1 Y259A = target: T8, OR2W1 Y259A (Homo sapiens, UniProt Q9Y3N9, Y259A); experiment: GloSensor assay, OR2W1 Y259A; settings: ligands 300 µmol/L
T8 construct: full-length gene-specific forward and reverse primers were added; 39aa rho-tag; expressed in transfected cells; host or cells: NxG 108CC15 or HEK-293 cells
T8 sequence (Q9Y3N9 1-320 Y259A): T3 sequence (Q9Y3N9 1-320) with Y259A
Procedure: as §3, §1, §2

OR2W1 Y252A/Y259A = target: T9, OR2W1 Y252A/Y259A (Homo sapiens, UniProt Q9Y3N9, Y252A/Y259A); experiment: GloSensor assay, OR2W1 Y252A/Y259A; settings: ligands 300 µmol/L
T9 construct: full-length gene-specific forward and reverse primers were added; 39aa rho-tag; expressed in transfected cells; host or cells: NxG 108CC15 or HEK-293 cells
T9 sequence (Q9Y3N9 1-320 Y252A/Y259A): T3 sequence (Q9Y3N9 1-320) with Y252A, Y259A
Procedure: as §3, §1, §2

OR1A1 wt = target: T10, OR1A1 wt (Homo sapiens, UniProt Q9P1Q5); experiment: cAMP-luminescence GloSensor assay, recombinant OR1A1 wt; settings: for EC50: OR1A1 wt
T10 construct: 39aa rho-tag; expressed in transfected cells; host or cells: NxG 108CC15 or HEK-293 cells
T10 sequence (Q9P1Q5 1-309): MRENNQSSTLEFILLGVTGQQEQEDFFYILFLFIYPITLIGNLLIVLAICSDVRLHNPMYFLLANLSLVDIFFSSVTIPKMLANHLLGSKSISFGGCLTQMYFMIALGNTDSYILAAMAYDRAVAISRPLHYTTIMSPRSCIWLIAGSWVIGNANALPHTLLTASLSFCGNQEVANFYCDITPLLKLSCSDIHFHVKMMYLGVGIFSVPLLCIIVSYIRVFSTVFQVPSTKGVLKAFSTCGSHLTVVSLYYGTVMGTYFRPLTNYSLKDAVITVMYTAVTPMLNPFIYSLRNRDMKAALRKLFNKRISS
Procedure: as §1, §2

[2] = 10 µmol/L Cu^2+, read-out: EC50 in the presence of Cu^2+
[3] = read-out: EC50 in the absence of Cu^2+
[4] = EC50 in the presence of Cu^2+, 10 µmol/L Cu^2+
[5] = mean ± SD (n = 3–5), read-out: EC50 in the absence of Cu^2+

T2 sequence (Q8NH01 whole entry C119R): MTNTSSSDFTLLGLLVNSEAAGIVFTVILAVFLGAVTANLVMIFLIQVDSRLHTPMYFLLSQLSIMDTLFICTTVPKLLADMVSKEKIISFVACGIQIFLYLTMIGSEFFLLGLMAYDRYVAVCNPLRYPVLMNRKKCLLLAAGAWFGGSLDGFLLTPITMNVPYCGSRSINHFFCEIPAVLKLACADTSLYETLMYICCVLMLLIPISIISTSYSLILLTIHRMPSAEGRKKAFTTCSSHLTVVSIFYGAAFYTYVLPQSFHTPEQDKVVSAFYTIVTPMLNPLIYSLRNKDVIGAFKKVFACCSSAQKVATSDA

Compound: [Cl][Cu][Cl] [Cu^2+, copper(II) chloride]
- odorant-independent constitutive activity of OR2M3 (OR2M3 wt; Cu^2+ supplementation > 10 µmol/L): decreased
- basal activity of OR2M3 (OR2M3 wt; Cu^2+ supplementation of 10 µmol/L): did not inhibit

Compound: CC(C)(C)S [2-methylpropane-2-thiol]
- Relative amplitude (OR2T11 C119R; 30 µmol/L CuCl2, normalized to OR2T11 C119R signal (100 µmol/L agonist) in the presence of Cu^2+): 1
- EC50 (OR2T11 C119R; presence of 30 µmol/L CuCl2 (footnote d)): 0.25 ± 0.19 µM

Compound: COCCN=C1S/C(=C\c2cc(C)n(-c3ccc(F)cc3F)c2C)C(=O)N1C [CYM50308]
- EC50 [1, 2]: 0.344 ± 0.091 µM
- EC50 [1, 3]: 0.517 ± 0.0746 µM

Compound: C=CCOC(=O)Cc1ccccc1 [Allyl phenyl acetate, allyl phenyl acetate]
- EC50 (OR2W1 wt; EC50 in the absence of Cu^2+, mean ± SD (n = 3–5)): 64.4 ± 3.58 µM
- EC50 (OR2W1 wt; [4]): 55.2 ± 8.59 µM
- EC50 (OR2W1 L202S; EC50 in the absence of Cu^2+): 37.6 ± 11.7 µM
- EC50 (OR2W1 L202S; [4]): 46 ± 14.3 µM
- EC50 (OR2W1 L202C; EC50 in the absence of Cu^2+): 130 ± 82.5 µM
- EC50 (OR2W1 L202C; [4]): 73 ± 42.1 µM
- EC50 (OR2W1 S109A; EC50 in the absence of Cu^2+): 46 ± 11.6 µM
- EC50 (OR2W1 S109A; [4]): 119 ± 19.9 µM
- agonist function in mutant receptor (OR2W1 Y252A): non-functional
- agonist function in mutant receptor (OR2W1 Y259A): non-functional
- agonist function in mutant receptor (OR2W1 Y252A/Y259A): non-functional

Compound: C=C(C)[C@@H]1CC=C(C)C(=O)C1 [(R)-(-)-Carvone, (R)-(-)-carvone]
- EC50 (OR1A1 wt; [2]): 159 ± 43.1 µM
- EC50 (OR1A1 wt; [3]): 126 ± 34.1 µM

Compound: SCCc1ccccc1 [2-Phenylethanethiol, 2-phenylethanethiol]
- EC50 (OR2W1 wt; [2]): 106.2 ± 0.93 µM
- EC50 (OR2W1 wt; [5]): 37.8 ± 0.62 µM
- EC50 (OR1A1 wt; [2]): 73.1 ± 16.4 µM
- EC50 (OR1A1 wt; [3]): 206 ± 21.5 µM
- efficacy in activating OR1A1 (OR1A1 wt; presence of Cu^2+ at 10 µmol/L): reduced
- EC50 (OR2W1 L202S; [2]): 96.7 ± 4.66 µM
- EC50 (OR2W1 L202S; [3]): 97 ± 13 µM
- EC50 (OR2W1 L202C; [2]): 63.4 ± 3.77 µM
- EC50 (OR2W1 L202C; [3]): 65.1 ± 10.8 µM
- EC50 (OR2W1 S109A; [2]): 38.9 ± 5.38 µM
- EC50 (OR2W1 S109A; [3]): 34.4 ± 9.98 µM
- agonist function in mutant receptor (OR2W1 Y252A): non-functional
- agonist function in mutant receptor (OR2W1 Y259A): non-functional
- agonist function in mutant receptor (OR2W1 Y252A/Y259A): non-functional

Compound: CCCC(S)CCOC(C)=O (stereo not shown) [3-Mercaptohexyl acetate, 3-mercaptohexyl acetate]
- EC50 (OR2W1 wt; [2]): 121 ± 1.59 µM
- EC50 (OR2W1 wt; [5]): 132 ± 20.9 µM
- EC50 (OR1A1 wt; [2]): 354 ± 113 µM
- EC50 (OR1A1 wt; [3]): 405 ± 86.7 µM
- EC50 (OR2W1 L202S; [2]): 311 ± 22.1 µM
- EC50 (OR2W1 L202S; [3]): 146 ± 6.48 µM
- EC50 (OR2W1 L202C; [2]): 114 ± 10.5 µM
- EC50 (OR2W1 L202C; [3]): 98.9 ± 7.49 µM
- EC50 (OR2W1 S109A; [2]): 127 ± 84.9 µM
- EC50 (OR2W1 S109A; [3]): 146 ± 23 µM
- agonist function in mutant receptor (OR2W1 Y252A): non-functional
- agonist function in mutant receptor (OR2W1 Y259A): non-functional
- agonist function in mutant receptor (OR2W1 Y252A/Y259A): non-functional
